system: THP-1 Lucia ISG cells; assay: ISG-LUC activation assay (ISRE-luciferase assay); format: cell-based; details: Homo sapiens, THP1-Lucia ISG, activity score based upon potency and efficacy data, 24 hours
Source text: We have established a robust platform for identifying non-nucleotide small molecule STING agonists. This has been established using a primary assay involving a human THP-1 cell line carrying an IRF-inducible reporter with 5 copies of the IFN signaling response element. Counter screens, involving alternative reporter constructs, rodent cell-based assays, as well as cGAS and STING knock-out cell lines, are used to eliminate luciferase artifacts and ensure human-rodent cross species reactivity, as well as pathway selectivity. Biochemical assays, involving cGAS enzymatic activity and STING protein binding assays, are used to identify the specific target of identified hits.
Tissue culture. Wild-type (cat. no. thpl-isg) and STING KO (cat. no. thpd-kostg) THP-1-Lucia ISG cells were purchased from Invivogen and maintained in growth media consisting of RPMI 1640, 2 mM L-glutamine, 25 mM HEPES, 10% heat-inactivated fetal bovine serum (FBS), 1,000 units/ml penicillin, 1,000 μg/ml streptomycin, 0.25 μg/ml Amphotericin B, and 100 μg/ml zeocin unless otherwise stated.
ISRE-luciferase assay. THP-1 Lucia ISG cells were resuspended in low-serum growth media (2% FBS) at a density of 5×10^5 cells/ml and treated with test article or vehicle (DMSO). 50 μL of cells were seeded into each well of a 384-well white greiner plates and incubated for 24 hours. To evaluate expression of the luciferase reporter, 30 μl of Quanti-luc (Invivogen) detection reagent was added to each well and luminescence was read using an Envision plate reader (Perkin Elmer) set with an integration time of 0.1 seconds.

`C#Cc1cc(NC(=O)c2ccc(-c3ccncc3)nn2)c(C(=O)O)cc1Cl` [Compound 78] and `C#Cc1cc(NC(=O)c2ccc(-n3ccnc3)nn2)c(C(=O)O)cc1Cl` [Compound 81] cannot be ordered by EC50: < 900 nM for the first, < 900 nM for the second.

`C#Cc1cc(NC(=O)c2ccc(-n3ccnc3)nn2)c(C(=O)O)cc1F` [Compound 79] and `CC#Cc1cc(NC(=O)c2ccc(-n3ccnc3)nn2)c(C(=O)O)cc1F` [Compound 87] cannot be ordered by EC50: < 900 nM for the first, < 900 nM for the second.

`C#Cc1cc2nc(-c3ccc(-n4ccnc4)nn3)oc(=O)c2cc1Cl` [Compound 80] and `C#Cc1cc2nc(-c3ccc(-n4ccnc4)nn3)oc(=O)c2nc1Cl` [Compound 93] cannot be ordered by EC50: < 900 nM for the first, < 3000 nM for the second.

First: O=C(Nc1cc(Cl)c(Cl)nc1C(=O)O)c1ccc(-n2ccnc2)nn1 [Compound 82]
Second: Cc1nc(C(=O)O)c(NC(=O)c2ccc(-n3ccnc3)nn2)cc1Cl [Compound 91]
The EC50 of the first is lower: < 900 nM for the first, > 1000 nM for the second.

Going from `C#Cc1cc(NC(=O)c2ccc(-c3cn[nH]c3)nn2)c(-c2c(O)c(=O)c2=O)cc1F` [Compound 83] to `C#Cc1cc(NC(=O)c2ccc(-c3cn[nH]c3)nn2)c(-c2nn[nH]n2)cc1F` [Compound 84], the EC50 rises from < 900 nM to > 1000 nM.

First: C#Cc1cc(NC(=O)c2ccc(-n3ccnc3)nn2)c(C(=O)OCC)cc1F [Compound 85]
Second: C#Cc1cc(NC(=O)c2ccc(-n3ccnc3)nn2)c(C(=O)OC(C)C)cc1F [Compound 96]
The EC50 of the first is lower: < 900 nM for the first, > 1000 nM for the second. The first is the more potent here.

`C#Cc1cc(NC(=O)c2ccc(-n3ccnc3)nn2)c(C(=O)OC(C)OC(=O)OCC)cc1F` (stereo not shown) [Compound 86] and `C#Cc1cc(NC(=O)c2ccc(-n3ccnc3)nn2)c(C(=O)OC(C)OC(=O)OCC)nc1Cl` (stereo not shown) [Compound 102] cannot be ordered by EC50: < 900 nM for the first, < 900 nM for the second.

`C=Cc1cc(NC(=O)c2ccc(-n3ccnc3)nn2)c(C(=O)O)cc1F` [Compound 88] and `C/C=C/c1cc(NC(=O)c2ccc(-n3ccnc3)nn2)c(C(=O)O)cc1F` [Compound 89] cannot be ordered by EC50: < 900 nM for the first, < 900 nM for the second.

`C#Cc1cc(NC(=O)c2ccc(-n3ccnc3)nn2)c(C(=O)O)nc1C` [Compound 90] and `C#Cc1cc(NC(=O)c2ccc(-n3ccnc3)nn2)c(C(=O)O)nc1F` [Compound 92] cannot be ordered by EC50: < 3000 nM for the first, < 900 nM for the second.

Going from `C#Cc1cc(NC(=O)c2ccc(-n3ccnc3)nn2)c(C(=O)OC(OC(=O)C(C)C)C(C)C)cc1F` (stereo not shown) [Compound 94] to `C#Cc1cc(NC(=O)c2ccc(-n3ccnc3)nn2)c(C(=O)NCCO)cc1F` [Compound 106], the EC50 rises from < 900 nM to > 20000 nM. The first is the more potent here.

`CC#Cc1cc(NC(=O)c2ccc(-n3ccnc3)nn2)c(C(=O)OCC)nc1Cl` [Compound 95] and `CC#Cc1cc(NC(=O)c2ccc(-n3ccnc3)nn2)c(C(=O)O)nc1Cl` [Compound 104] cannot be ordered by EC50: < 900 nM for the first, < 900 nM for the second.

Compared with `C#Cc1cc(NC(=O)c2ccc(-n3ccnc3)nn2)c(C(=O)OC(C)C)nc1Cl` [Compound 97], `C#Cc1cc(NC(=O)c2ccc(-n3ccnc3)nn2)c(C(=O)NCCO)nc1Cl` [Compound 105] is higher in EC50: < 900 nM for the first, > 1000 nM for the second.

`C#Cc1cc(NC(=O)c2ccc(-n3ccnc3)nn2)c(C(=O)OCCN2CCOCC2)nc1Cl` [Compound 98] and `C#Cc1cc(NC(=O)c2ccc(-n3ccnc3)nn2)c(C(=O)OCCN2CCOCC2)cc1F` [Compound 103] cannot be ordered by EC50: < 900 nM for the first, < 900 nM for the second.

`N#Cc1cc(C(=O)O)c(NC(=O)c2ccc(-n3ccnc3)nn2)cc1Cl` [Compound 99] and `C#Cc1cc(NC(=O)c2ccc(-n3ccnc3)nn2)c(C(=O)O)cc1C#N` [Compound 100] cannot be ordered by EC50: < 3000 nM for the first, < 3000 nM for the second.

`C/C=C/c1cc(NC(=O)c2ccc(-n3ccnc3)nn2)c(C(=O)O)nc1Cl` [Compound 101] and `C#Cc1cc(NC(=O)c2ccc(-n3ccnc3)nn2)c(C(=O)OC)nc1C#N` [Compound 107] cannot be ordered by EC50: < 900 nM for the first, < 900 nM for the second.

In the case of `C#Cc1cc(NC(=O)c2ncc(-c3cn[nH]c3)cn2)c(C(=O)O)cc1F` [Compound 108], the EC50 is reported as > 20000 nM.

Source: patent US20220288065A1, “MONOCYCLIC AGONISTS OF STIMULATOR OF INTERFERON GENES STING” (The Scripps Research Institute, priority 2019, published 2022)
